This assay deals with T1, ADAMTS-4 (Homo sapiens, UniProt O75173).
T1 construct: made in house
T1 sequence (O75173 213-837): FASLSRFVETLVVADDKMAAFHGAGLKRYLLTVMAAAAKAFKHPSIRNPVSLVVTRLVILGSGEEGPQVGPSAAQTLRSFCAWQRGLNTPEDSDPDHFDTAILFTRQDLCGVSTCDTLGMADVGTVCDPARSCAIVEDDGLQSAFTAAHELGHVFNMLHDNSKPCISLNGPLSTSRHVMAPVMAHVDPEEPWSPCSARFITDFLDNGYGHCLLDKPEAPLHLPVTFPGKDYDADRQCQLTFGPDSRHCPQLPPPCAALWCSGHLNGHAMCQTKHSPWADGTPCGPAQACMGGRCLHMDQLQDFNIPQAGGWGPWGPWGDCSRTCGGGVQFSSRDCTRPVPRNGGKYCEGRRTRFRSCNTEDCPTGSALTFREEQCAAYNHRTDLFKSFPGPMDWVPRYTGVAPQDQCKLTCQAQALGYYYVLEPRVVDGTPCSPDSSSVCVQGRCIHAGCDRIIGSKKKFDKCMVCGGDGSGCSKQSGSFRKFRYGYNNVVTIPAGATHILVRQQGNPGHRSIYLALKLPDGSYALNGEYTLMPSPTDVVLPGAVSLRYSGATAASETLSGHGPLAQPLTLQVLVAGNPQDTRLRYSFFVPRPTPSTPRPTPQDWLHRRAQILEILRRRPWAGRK
Briefly: QF peptide cleavage assay, ADAMTS-4. The conditions noted are these: 12-residue QF peptide substrate; mean ± SEM (n = 3); read-out: IC50 (μM) QF peptide ATS4. The format is biochemical. How it is done: All enzyme assays were conducted in TNC-B buffer (50 mM Tris–HCl, pH 7.5, 150 mM NaCl, 10 mM CaCl2, and 0.02% NaN3) at 37 °C. To avoid the formation of inhibitor aggregates, the detergent Brij-35 (0.05%) was added to the assay buffer. No aggregation was visually observed at concentrations up to 2 mM. The inhibitor stock solutions in DMSO (10 mM) were diluted at different concentrations in assay buffer and incubated with ADAMTS-4 or ADAMTS-5 for 2 h at 37 °C. Percent of inhibition was calculated from control reactions containing only DMSO. IC50 values were determined using the formula: vi/v0 = 1/(1 + [I]/IC50) where vi is the initial velocity of substrate cleavage in the presence of the inhibitor at concentration [I] and v0 is the initial velocity in the presence of an equal concentration (v/v) of DMSO.
QF peptide cleavage assays were conducted in 96-well black microtiter plates (Scientific Laboratories Supplies Ltd, Wilford, UK) using a Fluostar Omega microplate reader (BMG Labtech, Aylesbury, UK). The activity of ADAMTS-4 (1 nM) and -5 (5 nM) was monitored for 2 h using the fluorescent peptide substrates fluorescein 5(6)-carbonyl-Ala-Glu-Leu-[…]-Gly-Arg-Pro-Ile-Ser-Ile-Ala-Lys-N,N,N0,N0-tetramethyl-6-carboxyrhodamine-NH2 (FAM-AE ~ LQGRPISIAK-TAMRA, ADAMTS-4) and fluorescein 5(6)-carbonyl-Thr-Glu-Ser-Glu ~ Ser-Arg-Gly-Ala-Ile-Tyr-Lys-Lys-N,N,N0,N0-tetramethyl-6-carboxyrhodamine-NH2 (FAM-TESE ~ SRGAIYKK-TAMRA, ADAMTS-5) (custom-synthesized by Bachem, Bubendorf, Switzerland) with an excitation wavelength of 485 nm and an emission wavelength of 538 nm. Final substrate concentrations were 1 μM and 40 μM for ADAMTS-4 and -5, respectively. Fluorescence was expressed in relative fluorescence units (RFU) and normalized against a blank containing only buffer and substrate. Emission spectra were recorded at several concentrations of each compound to exclude auto-fluorescence and maximal inhibitor concentrations were selected accordingly.

The structures appear in SMILES notation. A value given as a limit tells only on which side of the number the result lay.

Take `CCC(C)N(Cc1cn(CCCOC2OC(CO)C(O)C(O)C2NC(C)=O)nn1)S(=O)(=O)c1ccc(-c2ccccc2)cc1` (mixture of isomers) [Compound 4b]: the half-maximal inhibitory concentration (IC50) was over 50 µM.
For `CCC(C)N(Cc1cn(CCCOC(=O)c2ccccc2)nn1)S(=O)(=O)c1ccc(-c2ccccc2)cc1` (racemic) [Compound 6] the value was over 50 µM.

Usually IC50 stands for the concentration at which inhibition is half-maximal.

These data come from publication PMC7806935, “Exosite inhibition of ADAMTS-5 by a glycoconjugated arylsulfonamide” (Scientific Reports, 2021).
